Test results reported in ChEMBL document CHEMBL1833863, “Synthesis, biological evaluation and molecular docking studies of 1,3,4-thiadiazole derivatives containing 1,4-benzodioxan as potential antitumor agents” (Bioorg Med Chem Lett, 2011).
pEC50: −log10 of the molar value. Values after ≈ are worked out from the molar mass of the structure shown. Active and inactive are the calls of the source. No cut-off for these calls is given here.

What was measured:
HepG2 [1] = test: Antiproliferative activity against human HepG2 cells after 48 hrs by MTT assay; assay type: functional, cell-based; details: HepG2, 48 h
HeLa = test: Antiproliferative activity against human HeLa cells after 48 hrs by MTT assay; assay type: functional, cell-based
[2] = Antiproliferative activity against human SW1116 cells after 48 hrs by MTT assay; assay type: functional, cell-based; details: SW 1116, 48 h
BGC-823 = test: Antiproliferative activity against human BGC823 cells after 48 hrs by MTT assay; assay type: functional, cell-based; details: BGC-823, 48 h
Focal adhesion kinase 1 [3] = target: T1, Focal adhesion kinase 1 (Homo sapiens, UniProt Q05397); test: Inhibition of human recombinant full-length FAK assessed as remaining ATP after 4 hrs by Kinase-Glo-luminescence assay
Target sequence in this assay (Q05397 whole entry): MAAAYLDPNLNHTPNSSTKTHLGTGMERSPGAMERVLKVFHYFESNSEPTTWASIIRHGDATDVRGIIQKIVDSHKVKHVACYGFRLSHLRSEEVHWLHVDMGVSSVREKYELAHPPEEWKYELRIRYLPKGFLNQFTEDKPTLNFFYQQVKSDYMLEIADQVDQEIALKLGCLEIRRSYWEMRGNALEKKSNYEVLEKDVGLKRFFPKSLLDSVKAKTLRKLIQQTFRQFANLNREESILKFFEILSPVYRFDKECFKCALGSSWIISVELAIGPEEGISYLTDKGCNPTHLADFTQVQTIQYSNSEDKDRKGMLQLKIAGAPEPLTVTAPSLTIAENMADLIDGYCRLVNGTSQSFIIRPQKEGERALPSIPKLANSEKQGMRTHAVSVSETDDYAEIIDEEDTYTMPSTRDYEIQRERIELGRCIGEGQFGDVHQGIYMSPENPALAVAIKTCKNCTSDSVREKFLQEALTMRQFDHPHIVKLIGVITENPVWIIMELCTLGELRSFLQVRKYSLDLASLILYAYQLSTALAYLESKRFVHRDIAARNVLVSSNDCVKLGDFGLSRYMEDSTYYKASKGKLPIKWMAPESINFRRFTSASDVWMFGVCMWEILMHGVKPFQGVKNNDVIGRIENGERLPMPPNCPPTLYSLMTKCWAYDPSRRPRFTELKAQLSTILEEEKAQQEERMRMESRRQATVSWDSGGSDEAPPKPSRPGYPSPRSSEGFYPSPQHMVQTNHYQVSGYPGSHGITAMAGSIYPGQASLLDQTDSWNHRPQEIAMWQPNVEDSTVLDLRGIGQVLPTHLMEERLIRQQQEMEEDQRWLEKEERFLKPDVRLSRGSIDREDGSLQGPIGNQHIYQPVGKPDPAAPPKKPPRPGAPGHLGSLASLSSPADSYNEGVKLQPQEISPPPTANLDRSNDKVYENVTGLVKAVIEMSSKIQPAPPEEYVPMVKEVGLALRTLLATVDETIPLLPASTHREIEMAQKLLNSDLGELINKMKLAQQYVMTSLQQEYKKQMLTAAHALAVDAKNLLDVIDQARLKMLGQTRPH

HepG2 [4] = test: Induction of apoptosis in human HepG2 cells assessed as viable cells at 0.5 uM after 24 hrs using Annexin V-FITC and propidium iodide staining by flow cytometry (reference value: 96.26 %); assay type: functional; details: HepG2, 24 h, read-out: Activity
HepG2 [5] = test: Induction of apoptosis in human HepG2 cells assessed as early apoptotic cells at 0.5 uM after 24 hrs using Annexin V-FITC and propidium iodide staining by flow cytometry (reference value: 0.02 %); assay type: functional
HepG2 [6] = test: Induction of apoptosis in human HepG2 cells assessed as late apoptotic cells at 0.5 uM after 24 hrs using Annexin V-FITC and propidium iodide staining by flow cytometry (reference value: 0.90 %); assay type: functional
HepG2 [7] = test: Induction of apoptosis in human HepG2 cells assessed as necrotic cells at 0.5 uM after 24 hrs using Annexin V-FITC and propidium iodide staining by flow cytometry (reference value: 2.82 %); assay type: functional
HepG2 [8] = test: Induction of apoptosis in human HepG2 cells assessed as viable cells at 1 uM after 24 hrs using Annexin V-FITC and propidium iodide staining by flow cytometry (reference value: 96.26 %); assay type: functional; details: HepG2, 24 h, read-out: Activity
HepG2 [9] = test: Induction of apoptosis in human HepG2 cells assessed as early apoptotic cells at 1 uM after 24 hrs using Annexin V-FITC and propidium iodide staining by flow cytometry (reference value: 0.02 %); assay type: functional
HepG2 [10] = test: Induction of apoptosis in human HepG2 cells assessed as late apoptotic cells at 1 uM after 24 hrs using Annexin V-FITC and propidium iodide staining by flow cytometry (reference value: 0.90 %); assay type: functional
HepG2 [11] = test: Induction of apoptosis in human HepG2 cells assessed as necrotic cells at 1 uM after 24 hrs using Annexin V-FITC and propidium iodide staining by flow cytometry (reference value: 2.82 %); assay type: functional
HepG2 [12] = test: Induction of apoptosis in human HepG2 cells assessed as viable cells at 2 uM after 24 hrs using Annexin V-FITC and propidium iodide staining by flow cytometry (reference value: 96.26 %); assay type: functional; details: HepG2, 24 h, read-out: Activity
HepG2 [13] = test: Induction of apoptosis in human HepG2 cells assessed as early apoptotic cells at 2 uM after 24 hrs using Annexin V-FITC and propidium iodide staining by flow cytometry (reference value: 0.02 %); assay type: functional
HepG2 [14] = test: Induction of apoptosis in human HepG2 cells assessed as late apoptotic cells at 2 uM after 24 hrs using Annexin V-FITC and propidium iodide staining by flow cytometry (reference value: 0.90 %); assay type: functional
HepG2 [15] = test: Induction of apoptosis in human HepG2 cells assessed as necrotic cells at 2 uM after 24 hrs using Annexin V-FITC and propidium iodide staining by flow cytometry (reference value: 2.82 %); assay type: functional
HepG2 [16] = test: Induction of apoptosis in human HepG2 cells assessed as viable cells at 4 uM after 24 hrs using Annexin V-FITC and propidium iodide staining by flow cytometry (reference value: 96.26 %); assay type: functional; details: HepG2, 24 h, read-out: Activity
HepG2 [17] = test: Induction of apoptosis in human HepG2 cells assessed as early apoptotic cells at 4 uM after 24 hrs using Annexin V-FITC and propidium iodide staining by flow cytometry (reference value: 0.02 %); assay type: functional
HepG2 [18] = test: Induction of apoptosis in human HepG2 cells assessed as late apoptotic cells at 4 uM after 24 hrs using Annexin V-FITC and propidium iodide staining by flow cytometry (reference value: 0.90 %); assay type: functional
HepG2 [19] = test: Induction of apoptosis in human HepG2 cells assessed as necrotic cells at 4 uM after 24 hrs using Annexin V-FITC and propidium iodide staining by flow cytometry (reference value: 2.82 %); assay type: functional
HepG2 [20] = test: Induction of apoptosis in human HepG2 cells assessed as cleaved caspase 3 level at 0.74 to 20 […] uM by Western blotting; assay type: functional, cell-based
HepG2 [21] = test: Induction of apoptosis in human HepG2 cells assessed as cleaved PARP level at 0.74 to 20 […] uM by Western blotting; assay type: functional, cell-based
Focal adhesion kinase 1 [22] = target: T1, Focal adhesion kinase 1; test: Inhibition of FAK in human HepG2 cells at 2.22 to 20 uM by Western blot analysis; assay type: cell-based
Target sequence in this assay (Q05397 2-1052 limits assumed): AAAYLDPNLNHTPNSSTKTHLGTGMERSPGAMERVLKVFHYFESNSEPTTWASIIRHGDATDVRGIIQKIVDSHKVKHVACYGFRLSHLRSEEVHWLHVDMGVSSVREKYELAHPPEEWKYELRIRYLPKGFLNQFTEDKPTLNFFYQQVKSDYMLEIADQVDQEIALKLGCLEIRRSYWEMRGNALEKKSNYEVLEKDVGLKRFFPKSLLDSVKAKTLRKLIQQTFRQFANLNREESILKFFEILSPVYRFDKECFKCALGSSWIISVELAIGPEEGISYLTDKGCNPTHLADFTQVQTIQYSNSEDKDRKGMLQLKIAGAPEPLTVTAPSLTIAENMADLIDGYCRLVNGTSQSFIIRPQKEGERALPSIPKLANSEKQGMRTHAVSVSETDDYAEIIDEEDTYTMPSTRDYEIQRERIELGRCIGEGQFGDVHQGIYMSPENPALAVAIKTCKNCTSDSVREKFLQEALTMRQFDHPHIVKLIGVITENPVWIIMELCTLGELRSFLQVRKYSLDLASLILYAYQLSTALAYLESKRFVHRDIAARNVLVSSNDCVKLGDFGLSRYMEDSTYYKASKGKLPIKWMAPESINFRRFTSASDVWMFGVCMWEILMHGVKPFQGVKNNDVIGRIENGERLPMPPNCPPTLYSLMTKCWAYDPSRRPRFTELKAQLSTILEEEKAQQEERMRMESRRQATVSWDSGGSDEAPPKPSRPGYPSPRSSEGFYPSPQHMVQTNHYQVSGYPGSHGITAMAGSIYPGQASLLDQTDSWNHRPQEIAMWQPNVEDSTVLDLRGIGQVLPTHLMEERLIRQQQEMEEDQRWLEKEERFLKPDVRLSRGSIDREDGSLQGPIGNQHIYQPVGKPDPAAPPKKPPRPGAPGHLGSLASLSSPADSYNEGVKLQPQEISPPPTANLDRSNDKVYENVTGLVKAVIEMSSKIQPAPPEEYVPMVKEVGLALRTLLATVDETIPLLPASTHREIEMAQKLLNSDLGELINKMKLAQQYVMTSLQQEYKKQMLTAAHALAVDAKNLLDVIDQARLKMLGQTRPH

Compound | EC50 (HepG2 [1]) [µg/mL] | EC50 (HeLa) [µg/mL] | EC50 [2] [µg/mL] | EC50 (BGC-823) [µg/mL] | pEC50 (Focal adhesion kinase 1 [3]) | other results
O=C(Nc1nnc(-c2ccc3c(c2)OCCO3)s1)c1ccc(Cl)nc1 | 15.3 (≈ 41 µM) | > 100 | 30.3 (≈ 81 µM) | > 100 | 4.44 | 
O=C(Cc1ccc(Br)cc1)Nc1nnc(-c2ccc3c(c2)OCCO3)s1 | 42.1 (≈ 97.5 µM) | 51.2 (≈ 118 µM) | > 100 | > 100 | 4.26 | 
O=c1[nH]cc(F)c(=O)[nH]1 [FLUOROURACIL] | 23.3 (≈ 179 µM) | 31 (≈ 238 µM) | 28.5 (≈ 219 µM) | 17.4 (≈ 134 µM) |  | 
Cc1ccc(C(=O)Nc2nnc(-c3ccc4c(c3)OCCO4)s2)cn1 | > 100 | > 100 | > 100 | > 100 |  | 
O=C(CCc1ccccc1)Nc1nnc(-c2ccc3c(c2)OCCO3)s1 | 15.3 (≈ 41.7 µM) | 32.5 (≈ 88.3 µM) | 16.2 (≈ 44 µM) | 14.2 (≈ 38.7 µM) | 4.42 | 
O=C(Nc1nnc(-c2ccc3c(c2)OCCO3)s1)c1ccccc1 | 34.8 (≈ 102 µM) | > 100 | 67.6 (≈ 199 µM) | 46.1 (≈ 136 µM) | 4.21 | 
O=C(Cc1cccc(Br)c1)Nc1nnc(-c2ccc3c(c2)OCCO3)s1 | 45.8 (≈ 106 µM) | 54.2 (≈ 125 µM) | > 100 | > 100 | 4.22 | 
O=C(Cc1ccccc1)Nc1nnc(-c2ccc3c(c2)OCCO3)s1 | 18.3 (≈ 51.7 µM) | 49.9 (≈ 141 µM) | 51.3 (≈ 145 µM) | 27.4 (≈ 77.5 µM) | 4.30 | 
COc1cccc(CC(=O)Nc2nnc(-c3ccc4c(c3)OCCO4)s2)c1 | > 100 | > 100 | > 100 | > 100 |  | 
CCOc1ccc(CC(=O)Nc2nnc(-c3ccc4c(c3)OCCO4)s2)cc1OCC | > 100 | > 100 | > 100 | > 100 |  | 
O=C(Cc1ccc(Cl)cc1)Nc1nnc(-c2ccc3c(c2)OCCO3)s1 | 13.8 (≈ 35.5 µM) | 26.8 (≈ 69 µM) | 40.7 (≈ 105 µM) | > 100 | 4.50 | 
O=C(Cc1ccc2ccccc2c1)Nc1nnc(-c2ccc3c(c2)OCCO3)s1 | > 100 | > 100 | 43.6 (≈ 108 µM) | 67.9 (≈ 168 µM) |  | 
O=C(Cc1ccc(F)cc1)Nc1nnc(-c2ccc3c(c2)OCCO3)s1 | 23.8 (≈ 64 µM) | > 100 | > 100 | > 100 | 4.29 | 
O=C(/C=C/c1ccccc1)Nc1nnc(-c2ccc3c(c2)OCCO3)s1 | 10.3 (≈ 28.1 µM) | > 100 | 60.2 (≈ 165 µM) | 45.4 (≈ 124 µM) | 4.53 | viability at 0.5 µM (HepG2 [4]): 58.3%; Activity (HepG2 [5]): 0.8%; Activity (HepG2 [6]): 8%; Activity (HepG2 [7]): 32.8%; viability at 1 µM (HepG2 [8]): 58.9%; Activity (HepG2 [9]): 3.49%; Activity (HepG2 [10]): 13.17%; Activity (HepG2 [11]): 24.49%; viability at 2 µM (HepG2 [12]): 50.8%; Activity (HepG2 [13]): 4.03%; Activity (HepG2 [14]): 18%; Activity (HepG2 [15]): 27.21%; viability at 4 µM (HepG2 [16]): 39.5%; Activity (HepG2 [17]): 11%; Activity (HepG2 [18]): 23.25%; Activity (HepG2 [19]): 26.23%; Activity (HepG2 [20]): Active; Activity (HepG2 [21]): Active; inhibition (Focal adhesion kinase 1 [22]): Active
O=C(Nc1nnc(-c2ccc3c(c2)OCCO3)s1)c1ccccn1 | > 100 | > 100 | > 100 | 35.8 (≈ 105 µM) |  | 
O=C(Nc1nnc(-c2ccc3c(c2)OCCO3)s1)c1ccncc1 | > 100 | > 100 | > 100 | 41 (≈ 121 µM) |  | 
O=C(Cc1cccc(Cl)c1)Nc1nnc(-c2ccc3c(c2)OCCO3)s1 | 18.4 (≈ 47.5 µM) | 34.9 (≈ 89.9 µM) | 47.6 (≈ 123 µM) | > 100 | 4.33 | 
CC(=O)c1ccc(CC(=O)Nc2nnc(-c3ccc4c(c3)OCCO4)s2)cc1 | > 100 | > 100 | > 100 | > 100 |  | 
Nc1ccc(C(=O)Nc2nnc(-c3ccc4c(c3)OCCO4)s2)cc1 | > 100 | > 100 | 41.2 (≈ 116 µM) | > 100 |  | 
Cc1ccccc1C(=O)Nc1nnc(-c2ccc3c(c2)OCCO3)s1 | > 100 | > 100 | > 100 | > 100 |  | 
